Activity data for one compound are collected here from ChEMBL document CHEMBL2074443, “Association of tamoxifen biliary excretion rate with prior tamoxifen exposure and increased mdr1b expression” (Biochem Pharmacol, 2000).

The data set concerns the target ATP-dependent translocase ABCB1 (Rattus norvegicus, UniProt P43245). Put plainly: TP_TRANSPORTER: RT-PCR in vivo, liver of Lewis rat. The data set is classed as functional, organism-based.

ATP-dependent translocase ABCB1, sequence (P43245 whole entry): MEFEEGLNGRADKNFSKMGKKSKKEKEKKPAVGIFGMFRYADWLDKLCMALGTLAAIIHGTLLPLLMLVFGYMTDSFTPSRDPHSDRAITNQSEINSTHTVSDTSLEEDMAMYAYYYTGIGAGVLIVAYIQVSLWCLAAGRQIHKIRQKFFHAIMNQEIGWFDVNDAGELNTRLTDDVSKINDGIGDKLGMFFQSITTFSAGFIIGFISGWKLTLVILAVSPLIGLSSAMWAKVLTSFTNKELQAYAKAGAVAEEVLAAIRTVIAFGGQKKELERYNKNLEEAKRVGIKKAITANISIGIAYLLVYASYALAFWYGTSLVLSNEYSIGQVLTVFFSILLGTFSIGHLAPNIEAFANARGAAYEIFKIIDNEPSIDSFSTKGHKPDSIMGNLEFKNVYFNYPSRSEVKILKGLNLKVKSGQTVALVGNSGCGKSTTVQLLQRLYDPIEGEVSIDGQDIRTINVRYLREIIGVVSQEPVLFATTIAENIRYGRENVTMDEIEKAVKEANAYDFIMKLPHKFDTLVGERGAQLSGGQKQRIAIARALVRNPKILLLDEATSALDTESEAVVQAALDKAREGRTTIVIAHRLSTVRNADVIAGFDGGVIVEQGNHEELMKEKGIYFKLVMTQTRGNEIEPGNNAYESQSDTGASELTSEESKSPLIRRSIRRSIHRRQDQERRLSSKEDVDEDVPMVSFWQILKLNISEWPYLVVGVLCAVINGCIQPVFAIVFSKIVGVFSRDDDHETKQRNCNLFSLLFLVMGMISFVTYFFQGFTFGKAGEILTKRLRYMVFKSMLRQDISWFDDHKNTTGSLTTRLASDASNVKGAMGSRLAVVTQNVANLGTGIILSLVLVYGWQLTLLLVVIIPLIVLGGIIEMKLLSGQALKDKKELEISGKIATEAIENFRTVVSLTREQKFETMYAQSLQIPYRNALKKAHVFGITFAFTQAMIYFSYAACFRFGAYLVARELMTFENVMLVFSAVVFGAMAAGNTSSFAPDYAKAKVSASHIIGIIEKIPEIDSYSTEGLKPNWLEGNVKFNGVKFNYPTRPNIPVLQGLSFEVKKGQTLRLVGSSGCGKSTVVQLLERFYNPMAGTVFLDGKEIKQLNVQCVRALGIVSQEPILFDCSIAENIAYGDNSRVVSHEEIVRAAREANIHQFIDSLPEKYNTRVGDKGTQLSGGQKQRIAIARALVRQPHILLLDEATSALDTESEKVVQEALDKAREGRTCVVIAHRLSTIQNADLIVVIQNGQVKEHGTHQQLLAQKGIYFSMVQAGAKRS

`CC/C(=C(\c1ccccc1)c1ccc(OCCN(C)C)cc1)c1ccccc1` [TAMOXIFEN]: the Activity result is “inducer [+]”.
